# In article PMC9529094, “Identification of natural cytochalasins as leads for neglected tropical diseases drug discovery” (PLoS ONE, 2022):
# Read-outs that look alike come from different tables or passages of the source.
# Columns and labels:
# [1] = physchem; format: physicochemical; settings: pH 7.4, from LC retention time calibration; read-out: LogD 7.4 (Oct/buff)
# Method: To analyse cytochalasin lipophilicity, a methodology based on the retention time of molecules in stationary phase was used in LC-MS/MS (liquid chromatography-tandem mass spectrometry) Prominence UFLC (Shimadzu Corporation, Kyoto, Japan) and an interface with an LCMS-8045 triple quadrupole mass spectrometer (Shimadzu Corporation, Kyoto, Japan) with an electrospray ionization source (ESI). The chromatogram was obtained using a Supelco Ascentis express RP amide HPLC column (5 cm x 2.1 mm, 2.7 μM). The mobile phases consisted of 5% methanol in 10 mM ammonium acetate pH 7.4 (A) and 100% methanol (B). The mobile phase was eluted in binary gradient mode, and the gradient was as follows: 0 min, 95% A; 0.3 mins. 100% A; 5.2 mins. 0% A; 5.6 mins. 0% A; 5.8 mins. 100% A; 7.0 mins. And 100% A. The run time was 7 minutes, and the sample injection volume was 5 μL. Test compounds were prepared at 1.0 mg/mL by adding the stock solution at (1:1) mobile phases A:B (internal standard at 200 nM), and the DMSO concentration was lower than 2%. […]. The retention time (in minutes) of each of the eight standards was plotted against their LogD values. The resulting equation for the calibration curve (y = mx + b) was used to calculate the LogD values for the cytochalasins.
# [2] = in vitro; format: in vitro ADME; settings: pH 7.4, 0.5 μM compound, 0.25 mg/mL microsomes
# Method: The metabolic stability of the cytochalasins was evaluated in human pooled liver human microsomes (20 mg/ml, GIBCO) and pooled liver CD1 mouse microsomes (20 mg/ml, GIBCO). Test cytochalasins were prepared at a concentration of 0.5 μM and incubated with 0.25 mg/mL liver microsomes at pH 7.4), and the DMSO concentration was lower than 1%. The reaction was started by adding the cofactor NADPH at […]. Samples were taken at time point 0 (immediately following the addition of the co-factor), 5, 10, 20, 30 and 60 minutes. The reaction was stopped by adding quench solution containing acetonitrile:methanol (1:1) (internal standard tolbutamide at 50 nM). The samples were centrifuged (3500 rpm/30 min.) to obtain the pellet of precipitated microsomal protein. The supernatant fractions were quantified by LC-MS/MS (liquid chromatography-tandem mass spectrometry) Prominence UFLC (Shimadzu Corporation, Kyoto, Japan) and interfaced with an LCMS-8045 triple quadrupole mass spectrometer (Shimadzu Corporation, Kyoto, Japan) with an electrospray ionization source (ESI). The peak area ratios (analyte/internal standard) were converted to the % remaining using the area ratio at time 0 as 100%. The half-life (t1/2 = ln(2)/k) in minutes and intrinsic clearance (Clint = k x 1000/(0.25)) in μL/min/mg were calculated using a nonlinear regression from the % remaining versus the incubation time. From this plot, the slope (k) was determined. The chromatogram for analysis was obtained on a Supelco Ascentis express C18 column (3 cm x 2.1 mm, 5 μM). The mobile phases consisted of water + 0.1% formic acid (A) and acetonitrile + 0.1% formic acid (B). The mobile phase was eluted in binary gradient mode, and the gradient was as follows: 0 min, 95% A; 0.05 mins. 95% A; 0.3 mins: 2% A; 0.7 mins: 2% A; 0.8 mins: 95% A; 1.15 mins 95% A; and 2.0 mins 95% A. The run time was 2 minutes, the sample injection volume was 10 μL, and the flow rate was 0.7 mL/min.
# [3] = in vitro; format: in vitro ADME; settings: PAMPA; donor pH 6.5, acceptor pH 7.4, 5 h, 37°C; read-out: PAMPA permeability Mean Pe
# Method: A parallel artificial membrane permeability assay was performed in a 96-well precoated PAMPA plate system (Corning Gentest # 353015). The compound solutions were prepared by diluting the stock solutions (10 mM) in phosphate-buffered saline (PBS) pH 6.5 at a final concentration of 10 μM and then added to the donor portion of the plate (300 μl/well), while PBS pH 7.4 (200 μl/well) was added to the acceptor portion, and the DMSO concentration was lower than 1%. The two portions of the plate were then coupled, and the system was incubated for 5 h at 37°C. Samples of the initial donor solution (T0) were collected and stored at -20°C. At the end of the incubation, samples were collected from the donor and acceptor plates and then added to plates containing quench solution (10% water and 90% methanol:acetonitrile (50:50) + 50 nM tolbutamide). The T0 samples were treated similarly. The final concentrations of compounds in the donor, acceptor and T0 wells were quantified by LC-MS/MS (liquid chromatography-tandem mass spectrometry) Prominence UFLC (Shimadzu Corporation, Kyoto, Japan) and interfaced with an LCMS-8045 triple quadrupole mass spectrometer (Shimadzu Corporation, Kyoto, Japan) with an electrospray ionization source (ESI). The chromatogram for analysis was obtained on a Supelco Ascentis express C18 column (3 cm x 2.1 mm, 5 μM). The mobile phases consisted of water + 0.1% formic acid (A) and acetonitrile + 0.1% formic acid (B). The mobile phase was eluted in binary gradient mode, and the gradient was as follows: 0 min, 95% A; 0.05 mins. 95% A; 0.3 mins: 2% A; 0.7 mins: 2% A; 0.8 mins: 95% A; 1.15 mins 95% A; and 2.0 mins 95% A. The run time was 2 minutes, the sample injection volume was 10 μL, and the flow rate was 0.7 mL/min. The results were used to calculate an effective permeability (Pe) value.
# [4] = test system: L. infantum; experiment: Screening of natural product collection against L. infantum (cell infection assay); format: cell-based; settings: Leishmania infantum; compound concentration of 50 μM
# Method: A screening of a natural product collection was performed by using cell assays for infection with Trypanosoma cruzi and Leishmania infantum. The collection includes 320 compounds from the metabolic classes terpenes, alkaloids, peptides and amides that were isolated by plant species or endophytic fungi. For further evaluation in this study, cytochalasins A-D (CAS numbers: CytA: 14110-64-6, CytB: 14930-96-2, CytC: 22144-76-9, CytD: 22144-77-0) were obtained from Sigma-Aldrich (St. Louis, MO, USA). The purity of these compounds was ≥97%. The stock solution of the compounds was prepared in 100% DMSO (dimethyl sulfoxide—Sigma-Aldrich).
# [5] = human, read-out: Human liver microsome (HLM) CLint(mic)
# [6] = CD1, mouse, read-out: Mouse liver microsome (MsLM) CLint(mic)
SMILES,chromatographic logD [1],"microsomal CLint [2, 5] [µL/min/mg]",Papp [3] [nm/s],inhibition at 50 µM [4] [%],"microsomal CLint [2, 6] [µL/min/mg]"
CC(=O)OC1C=CC(C)(O)C(=O)C(C)CC=CC2C(O)C(C)=C(C)C3C(Cc4ccccc4)NC(=O)C123 (stereo not drawn) [Cytochalasin C],3.434 ± 0.003,144 ± 15.8,148 ± 32.8,58.5,
C=C1[C@@H](C)[C@H]2[C@H](Cc3ccccc3)NC(=O)[C@]23OC(=O)/C=C/[C@H](O)CCC[C@@H](C)C/C=C/[C@H]3[C@@H]1O [Cytochalasin B],3.361 ± 0.008,217 ± 6.05,158 ± 3.1,57.7,62.9
C=C1[C@@H](C)[C@H]2[C@H](Cc3ccccc3)NC(=O)[C@]23[C@H](OC(C)=O)/C=C/[C@@](C)(O)C(=O)[C@@H](C)C/C=C/[C@H]3[C@@H]1O [Cytochalasin D],3.043 ± 0.004,,87.4 ± 6.4,64.9,163 ± 22.4
C=C1[C@@H](C)[C@H]2[C@H](Cc3ccccc3)NC(=O)[C@]23OC(=O)/C=C/C(=O)CCC[C@@H](C)C/C=C/[C@H]3[C@@H]1O [Cytochalasin A],3.907 ± 0.014,7.86 ± 2.05,271 ± 23.7,100,167 ± 9.12
